In publication PMC9266822, “Thermal Shift Assay for Small GTPase Stability Screening: Evaluation and Suitability” (International Journal of Molecular Sciences, 2022):
Entries after “also recorded” stand apart in the source; their conditions may differ.

Columns and labels:
[1] = test system: T1, KRAS G12C; test: Protein-Probe thermal stability assay; format: binding, human; conditions: for concentration of saturated stabilization / ΔTm: 50 nM KRAS G12C; for ΔTm: 5 µM inhibitor, saturated
T1 construct: GG-Hs.KRAS4b (2-188) G12C; His6-MBP (N, cleaved yes); made in house; host or cells: E. coli
Protocol: All Protein-Probe assays were performed using a sample volume of 8 µL and a two-step assay protocol. […] Assays were performed in a sample buffer containing 10 mM HEPES (pH 7.5), 0.001% Triton X-100 and 20 mM NaCl and the buffer was supplemented with 0–10 mM MgCl2, 0–1 mM CaCl2, or 0–1 mM EDTA, depending on the assay. In all thermal stability assays, samples were preincubated at RT for 10 min (nucleotides) or 30 min (inhibitors) prior to thermal measurements. […] At each temperature, samples were incubated for 3 min before the Protein-Probe solution was added, and the TRL-signals at 620 nm were monitored at RT. […]
(§1) All inhibitor assays were performed with a buffer containing 1 mM MgCl2. […]

[2] = target: T2, KRAS G12C (Homo sapiens, UniProt P01116, G12C); test: Competitive Protein-Probe thermal stability assay with DARPin K13; format: binding; conditions: 50 nM KRAS G12C, 50 nM K13; 2 µM inhibitor
T2 construct: GG-Hs.KRAS4b (2-188) G12C; His6-MBP (N, cleaved yes); made in house; host or cells: E. coli

[3] = test system: T1, KRAS G12C; test: SYPRO Orange / ANS thermal ramping assay; format: binding, human; conditions: 10 µM KRAS G12C, 20 µM inhibitor, double transitions
Protocol: (§2) SYPRO Orange and ANS assays were performed using a one-step protocol, where the samples (8 µL) and SYPRO Orange/ANS solution (12 µL) were combined prior to the first heating step. The samples were incubated for 3 min at each temperature, followed by fluorescence signal measurement. SYPRO Orange was used at 5× (stock 5000×) and ANS at 10 µM final concentration.

[4] = test system: T3, KRAS WT; test: SYPRO Orange thermal ramping assay; format: binding, human; conditions: 10 µM KRAS WT, 20 µM compound
T3 construct: His6-MBP (N, cleaved yes); made in house; host or cells: E. coli
Protocol: as §2

[5] = test system: T1, KRAS G12C; test: Protein-Probe thermal stability assay; format: binding, human; conditions: KRAS G12C 50 nM; 1 µM ARS-1620; 0 mM MgCl2
[6] = target: T4, KRAS WT (Homo sapiens, UniProt P01116); test: QRET nucleotide exchange assay, SOScat induced; format: biochemical; conditions: 15 nM KRAS
T4 construct: GG-Hs.KRAS4b (2-188), GG-Hs.KRAS4b (2-188) G12C; His6-MBP (N, cleaved yes); made in house; host or cells: E. coli

[7] = test system: T3, KRAS WT; test: Protein-Probe thermal stability assay; format: binding, human
Protocol: (§3) All Protein-Probe assays were performed using a sample volume of 8 µL and a two-step assay protocol. Detection was performed at room temperature (RT) by adding 65 µL Protein-Probe solution: 4 µM HIDC (1,1,3,3,3′,3′-hexamethylindodicarbocyanine iodide) and 1–1.5 nM Eu^3+-labeled peptide probe (NH2-[…]). Assays were performed in a sample buffer containing 10 mM HEPES (pH 7.5), 0.001% Triton X-100 and 20 mM NaCl and the buffer was supplemented with 0–10 mM MgCl2, 0–1 mM CaCl2, or 0–1 mM EDTA, depending on the assay. In all thermal stability assays, samples were preincubated at RT for 10 min (nucleotides) or 30 min (inhibitors) prior to thermal measurements. Depending on the studied protein, thermal ramping was performed up to 95 °C, using 5 °C intervals. At each temperature, samples were incubated for 3 min before the Protein-Probe solution was added, and the TRL-signals at 620 nm were monitored at RT.
(§4) In addition, KRAS WT was monitored in a sample buffer supplemented with 0–10 mM MgCl2 or 0–1 mM CaCl2.
[…] KRAS WT (50 nM) was also monitored with 10 µM GDP in a buffer without MgCl2 or supplemented with 0–1 mM CaCl2 or 1 mM EDTA. HRAS (2 µM), NRAS (2 µM), RhoA (2 µM), and Gαi (50 nM) were monitored with 100 µM GDP, GTP, or ATP in buffers with or without 1 mM MgCl2 and 1 mM EDTA. In addition, melting curves for KRAS WT (50 nM) were measured with GTP analogs GTPγS, GMPPNP, and GMPPCP (0–300 µM), and GMP (0–1000 µM) in the presence of 1 mM MgCl2.
as §1

[8] = test system: KRAS G12D; test: Protein-Probe thermal stability assay; format: binding, human; conditions: Table S1; KRAS G12D 50 nM; MgCl2 1 mM, GDP 10 mM as headed
Protocol: as §3, §4
(§5) KRAS G13D (50 nM) was monitored in the presence of 0–900 nM GDP, and KRAS WT, G13D, G12D, and Q61R (50 nM) were monitored with 10 and/or 100 µM GDP, GTP, and ATP in buffer supplemented with 1 mM MgCl2. KRAS WT (50 nM) was also monitored with 10 µM GDP in a buffer without MgCl2 or supplemented with 0–1 mM CaCl2 or 1 mM EDTA. HRAS (2 µM), NRAS (2 µM), RhoA (2 µM), and Gαi (50 nM) were monitored with 100 µM GDP, GTP, or ATP in buffers with or without 1 mM MgCl2 and 1 mM EDTA. In addition, melting curves for KRAS WT (50 nM) were measured with GTP analogs GTPγS, GMPPNP, and GMPPCP (0–300 µM), and GMP (0–1000 µM) in the presence of 1 mM MgCl2.
All inhibitor assays were performed with a buffer containing 1 mM MgCl2.
(§6) Assays were performed using three DARPins alone or in combination with small molecular inhibitors. […] The thermal curves were monitored after an additional 30 min incubation at RT.

[9] = test system: T5, KRAS G13D; test: Protein-Probe thermal stability assay; format: binding, human; conditions: KRAS G13D 50 nM
T5 construct: GG-Hs.KRAS4b (2-188) G13D; His6-MBP (N, cleaved yes); made in house; host or cells: E. coli
Protocol: as §3, §4, §5, §6

[10] = test system: T6, KRAS Q61R; test: Protein-Probe thermal stability assay; format: binding, human; conditions: KRAS Q61R 50 nM
T6 construct: GG-Hs.KRAS4b (2-188) Q61R; His6-MBP (N, cleaved yes); made in house; host or cells: E. coli
Protocol: as §3, §4, §5, §6

[11] = test system: T7, RhoA; test: Protein-Probe thermal stability assay; format: binding; conditions: Table S1; RhoA 1 µM; additive concentrations not given (100 µM GDP/GTP)
T7 construct: and RhoA (1-182) were gen-; His6-MBP (N, cleaved yes); made in house; host or cells: E. coli
Protocol: as §3, §4
as §5, with “HRAS (2 µM), NRAS (2 µM), RhoA (2 µM), and Gαi (50 nM) were monitored with 100 µM GDP, GTP, or ATP in buffers with or without 1 mM MgCl2 and 1 mM EDTA.” left out

[12] = test system: Gαi; test: Protein-Probe thermal stability assay; format: binding; conditions: 100 µM GDP or GTP
Protocol: as §3, §4, §5

[13] = test system: T5, KRAS G13D; test: SYPRO Orange thermal ramping assay; format: binding, human; conditions: KRAS G13D 3 µM, 1 mM MgCl2, GDP 1 µM, ATP 1 mM
Protocol: as §2
Thermal stability curves for KRAS WT, G12C, G13D, and Q61R (0–30 µM) were monitored both with SYPRO Orange and ANS in an assay buffer with or without 1 mM MgCl2. In addition, HRAS, NRAS, KRAS V14I, RhoA, and Gαi were studied at 10 µM concentration. KRAS G13D (3 µM) was assayed with SYPRO Orange in thermal ramping in combination with 0–1000 µM GDP, 1000 µM GTP, and 1000 µM ATP in a buffer supplemented with 1 mM MgCl2. Additionally, 10 µM HRAS, NRAS, KRAS V14I, Ac-KRAS iMet-KRAS, RhoA, and Gαi were studied without additional nucleotides or with 10 or 100 µM GDP/GTP in an assay buffer supplemented with 1 mM MgCl2 or 1 mM EDTA.

[14] = Table S1, EDTA 0.5 mM, MgCl2 1 mM, GDP 10 mM, GTP 10 µM as headed

**Q.** C=CC(=O)N1CCN(c2ncnc3c(F)c(-c4c(O)cccc4F)c(Cl)cc23)CC1 [ARS-1620] was tested. Which “concentration of saturated stabilization” value [1] did it give?
**A.** The value was 5 µM.

**Q.** And the ΔTm [1]?
**A.** The ΔTm was 18 °C.

**Q.** And the “thermal stabilization” value ([1]; KRAS G12C 50 nM, 1 µM ARS-1620, 1 mM MgCl2)?
**A.** Its value is “thermally stabilizes”.

**Q.** And the “thermal stability increase in the presence of K13” value [2]?
**A.** The value was “no thermal stability increase”.

**Q.** And the maximal thermal stabilization [3]?
**A.** Its maximal thermal stabilization is about 13 °C.

**Q.** What about the “effect on thermal stability” value [4] of the same molecule?
**A.** Its value is “Neither compound altered”.

**Q.** And the “thermal stabilization” value [5]?
**A.** Its value is “diminished the thermal stability effect; also recorded: required Mg^2+ to stabilize”.

**Q.** Nc1nc2c(ncn2[C@@H]2O[C@H](COP(=O)(O)OP(=O)(O)O)[C@@H](O)[C@H]2O)c(=O)[nH]1 [GDP, guanosine-5’-diphosphate] was tested. Which KRAS binding ([6]; Fig. 3A legend, SOScat 10 nM) did it give?
**A.** The KRAS binding was under 15 nM.

**Q.** What about the EC50 ([6]; nucleotide titration, SOScat 5 nM (Table S2), 10 nM (Fig. 3 legend)) of the same molecule?
**A.** The EC50 was 11.9 ± 0.7 nM.

**Q.** And the “Tm of nucleotide-preloaded KRAS” value ([7]; KRAS 50 nM preloaded with the nucleotide, unit not given, in °C (unit assumed))?
**A.** Its value is 60.4 ± 0.2.

**Q.** And the “concentration at which KRAS was stabilized” value ([7]; KRAS WT 50 nM, 1 mM MgCl2)?
**A.** The value was 10000 nM.

**Q.** What about the ΔTm ([7]; KRAS WT 50 nM, 10 µM GDP in 1 mM MgCl2) of the same molecule?
**A.** Its ΔTm is 7.6 °C.

**Q.** And the ΔTm ([7]; KRAS WT 50 nM, 10 µM GDP in the presence of 1 mM EDTA)?
**A.** Its ΔTm is 11.3 °C.

**Q.** What about the Tm ([7]; KRAS WT 50 nM, 10 µM GDP with 0.1 mM Ca2+, unit not given, in °C (unit assumed)) of the same molecule?
**A.** Its Tm is 61.2 ± 0.9.

**Q.** What about the Tm ([7]; KRAS WT 50 nM, 10 µM GDP with 1 mM Ca2+, unit not given, in °C (unit assumed)) of the same molecule?
**A.** The Tm was 61.8 ± 0.6.

**Q.** What about the “Thermal Stability (°C)” value ([7]; Table S1, KRAS WT 50 nM, additive as headed: EDTA 0.5 mM, MgCl2 1 mM, GDP 10 mM, GTP 10 µM, GTPγS 10 µM, GMP-PNP 300 µM, GMP-PCP 300 µM, GMP 1 mM) of the same molecule?
**A.** The value was 68.0 ± 0.5 °C.

**Q.** And the “Thermal Stability (°C)” value [8]?
**A.** The value was 67.6 ± 0.4 °C.

**Q.** And the “shift of Tm” value ([9]; 10 µM GDP)?
**A.** The value was “over 10 °C”.

**Q.** And the “GDP concentration at which stabilization saturates” value ([9]; GDP titration 0–0.9 mM)?
**A.** The value was “approximately 300 µM”.

**Q.** What about the “Thermal Stability (°C)” value [9, 14] of the same molecule?
**A.** Its value is 60.5 ± 0.2 °C.

**Q.** And the “stabilization by GDP” value ([10]; 10 µM GDP)?
**A.** Its value is “not stabilized; also recorded: no change in Tm”.

**Q.** What about the “Thermal Stability (°C)” value [10, 14] of the same molecule?
**A.** The value was 71.3 ± 0.9 °C.

**Q.** What about the “Thermal Stability (°C)” value [11] of the same molecule?
**A.** The value was 70.1 ± 1.1 °C.

**Q.** What about the “max ΔTm” value ([12]; with Mg2+) of the same molecule?
**A.** The value was at most 1.0 °C.

**Q.** And the “max ΔTm” value ([12]; without Mg2+)?
**A.** The value was at most 3.3 °C.

**Q.** And the “stabilization” value [13]?
**A.** Its value is “no KRAS G13D stabilization”.

**Q.** For C=CC(=O)N1CC(N2CCN(C(=O)CNc3cc(C4(C)CC4)c(Cl)cc3O)CC2)C1 [ARS-853], which “concentration of saturated stabilization” value [1] is on record?
**A.** The value was 5 µM.

**Q.** And the ΔTm [1]?
**A.** The ΔTm was 16 °C.

**Q.** And the “thermal stability increase in the presence of K13” value [2]?
**A.** Its value is “no thermal stability increase”.

**Q.** What about the maximal thermal stabilization [3] of the same molecule?
**A.** Its maximal thermal stabilization is about 13 °C.

**Q.** And the “effect on thermal stability” value [4]?
**A.** Its value is “Neither compound altered”.
